Test results published in US9150598B2, “Masking apertures enabling automation and solution exchange in sessile bilayers” (The Regents of the University of California, priority 2011, dated 2015).
pEC50, pIC50: −log10 of the molar value. One block for each compound: values may come before it.

Experiments:
[1] = Control: DPhPC droplet bilayers made without hERG membrane preparations; conditions: identical amounts of drug added
TRPM8 [2] = target: T1, TRPM8 (Rattus norvegicus, UniProt Q8R455); assay: Ensemble TRPM8 currents in droplet lipid bilayer with solution perfusion (drug potency); format: biochemical; conditions: +100 mV
T1 construct: 6x histidine tag (N); made in house; host or cells: E. coli
Experimental: (§1) The apparatus was prepared for use by filling the outer wells and lower channel with 200 μL of an aqueous solution containing liposomes (described below) (FIG. 1B). The 200 μm aperture in the hydrophobic Delrin film is sufficiently small to prevent flow of aqueous solution through it. 80 μL of n-decane was then added to the center well, contacting the lower aqueous solution through the Delrin aperture (FIG. 1B). […] The lower aqueous solution could be exchanged by adding and withdrawing fluids through the outer wells (FIG. 1B).
2 μL of this solution was used for the sessile droplet and 200 μL of this solution (or a similarly prepared liposome solution not containing TRPM8) was added to the lower aqueous channel.
A Ag/AgCl counter electrode placed in the one of the outer wells and the Ag/AgCl pin electrode were connected to an Axopatch 200B amplifier (Axon Instruments), which was used to apply a transmembrane potential and measure the resultant ionic current (FIG. 1B). […] Bilayer capacitance was measured throughout to ensure that changes in measured current were due to changes in channel conductance and not changes in bilayer size or stability. […]
The resultant current at each concentration was measured over 10 minutes before the concentration was increased (FIG. 7). […]
The average current at each concentration was determined and normalized by the maximum value measured. […]

TRPM8 [3] = target: T1, TRPM8; assay: Single-channel TRPM8 recordings in droplet lipid bilayer (open probability); format: biochemical; conditions: 20° C., +100 mV, 2.5 μM PI(4,5)P2, n=9
Experimental: as §1
A TRPM8 construct with 6× histidine tag at the amino terminus was transformed into E. coli, expressed, and purified. […] The resulting proteoliposomes were aliquoted and stored at −80° C. […]
A Ag/AgCl counter electrode placed in the one of the outer wells and the Ag/AgCl pin electrode were connected to an Axopatch 200B amplifier (Axon Instruments), which was used to apply a transmembrane potential and measure the resultant ionic current (FIG. 1B). […] Bilayer capacitance was measured throughout to ensure that changes in measured current were due to changes in channel conductance and not changes in bilayer size or stability.
Temperature was measured using a 10 kΩ n-type thermistor (Newark) placed in the solution of one of the outer wells. […]
Ensembles of TRPM8 were measured using a 1:1000 protein:lipid ratio.

TRPM8 [4] = target: T1, TRPM8; assay: Ensemble TRPM8 currents while varying PI(4,5)P2 concentration; format: biochemical; conditions: 250 μM menthol, +100 mV, 20° C.
Experimental: Data were filtered at 200 Hz. Measurements began in the absence of PI(4,5)P2. After ten minutes at each concentration, the concentration of PI(4,5)P2 was then increased by 0.8 μM with the addition of […] PI(4,5)P2 stock solution (100 μM) to the 200 μL lower aqueous solution. With no PI(4,5)P2 in the measurement solution, there was no observed channel activity. As the concentration of PI(4,5)P2 increased, frequency of channel opening increased. […] Throughout experiments, temperature was kept constant at 20° C.
During measurement, solutions were added to the fluid inlet well and withdrawn from the fluid outlet well (FIG. 6D).
Bilayers were formed with this chip at very high yield and with highly consistent diameters (163±14 μm (n=55), measured capacitively).^17 Following bilayer formation, a potential of 0 mV was applied followed by voltage steps from −100 mV to +100 mV, in 20 mV increments for 10 seconds each, and the resulting current measured. We measured no TRPM8 currents in the absence of the signaling phospholipid PI(4,5)P2, in agreement with previous work (B. Liu and F. Qin, J. Neurosci., 2005, 25, 1674-1681; T. Rohács, C. M. B. Lopes, I. Michailidis and D. E. Logothetis, Nat. Neurosci., 2005, 8, 626-634). […] With PI(4,5)P2, constant TRPM8 currents were almost always observed immediately upon bilayer formation.

T1 sequence (Q8R455 whole entry, the tested form may be a part): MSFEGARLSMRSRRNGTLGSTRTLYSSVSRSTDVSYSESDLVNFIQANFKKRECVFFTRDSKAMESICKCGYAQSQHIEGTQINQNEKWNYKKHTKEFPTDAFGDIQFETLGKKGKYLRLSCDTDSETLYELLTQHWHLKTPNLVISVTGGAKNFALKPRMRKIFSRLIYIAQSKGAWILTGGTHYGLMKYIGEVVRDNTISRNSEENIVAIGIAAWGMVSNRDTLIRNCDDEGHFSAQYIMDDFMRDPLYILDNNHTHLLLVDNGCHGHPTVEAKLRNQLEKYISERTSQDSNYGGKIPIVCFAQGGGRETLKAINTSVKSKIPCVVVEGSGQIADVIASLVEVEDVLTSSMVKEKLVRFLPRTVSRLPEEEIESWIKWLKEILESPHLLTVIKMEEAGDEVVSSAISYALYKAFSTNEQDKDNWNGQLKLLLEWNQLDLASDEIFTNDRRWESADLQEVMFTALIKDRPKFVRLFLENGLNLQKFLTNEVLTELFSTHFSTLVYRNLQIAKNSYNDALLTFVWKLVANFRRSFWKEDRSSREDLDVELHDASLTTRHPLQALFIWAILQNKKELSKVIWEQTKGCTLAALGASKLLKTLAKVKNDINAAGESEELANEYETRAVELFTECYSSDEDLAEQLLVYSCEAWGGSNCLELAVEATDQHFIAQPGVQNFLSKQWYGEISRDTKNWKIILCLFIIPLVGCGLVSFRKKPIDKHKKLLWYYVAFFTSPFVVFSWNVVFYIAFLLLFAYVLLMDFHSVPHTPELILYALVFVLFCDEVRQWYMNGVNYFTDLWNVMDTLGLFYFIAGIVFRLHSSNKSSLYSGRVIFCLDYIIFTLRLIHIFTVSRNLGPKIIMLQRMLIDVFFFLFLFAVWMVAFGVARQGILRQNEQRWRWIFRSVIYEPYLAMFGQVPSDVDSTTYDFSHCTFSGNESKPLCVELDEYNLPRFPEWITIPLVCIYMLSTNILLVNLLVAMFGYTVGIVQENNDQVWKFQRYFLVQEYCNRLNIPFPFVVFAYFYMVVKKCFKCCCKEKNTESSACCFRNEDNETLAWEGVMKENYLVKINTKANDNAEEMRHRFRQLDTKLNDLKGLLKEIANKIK

Compound: COc1ccc(CCN2CCC(Nc3nc4ccccc4n3Cc3ccc(F)cc3)CC2)cc1 [astemizole]
Effect on bilayers without hERG [1]: no change in membrane conductance observed

Compound: CC1CCC(C(C)C)C(O)C1 (stereo not drawn) [menthol]
pEC50 (TRPM8 [2]; protein:lipid 1:1000, 2.5 μM PI(4,5)P2, n=3): 3.95 | Popen (open probability) of TRPM8 (TRPM8 [3]; 50 μM menthol): 0.639±0.029 | Popen (open probability) of TRPM8 (TRPM8 [3]; 500 μM menthol): 0.967±0.013

PI(4,5)P2 concentration at which maximum current did not increase further (TRPM8 [4]): 2.4 µM
Compound: phosphatidylinositol-4,5-bisphosphate [PI(4,5)P2]

Compound: NCCOB(c1ccccc1)c1ccccc1 [2-APB, 2-aminoethoxydiphenyl borate]
pIC50 (TRPM8 [2]; read-out: IC50 of 2-APB on menthol-evoked TRPM8 currents, in 500 μM menthol, protein:lipid 1:1000, n=3): 5.31
